What follows are compounds tested against Platelet-activating factor receptor (Oryctolagus cuniculus) (assay: In vitro inhibition of PAF induced aggregation of rabbit platelets.).

| IC50 | Structure (SMILES) |
| --- | --- |
| 2800 nM | CCOC1CC(COC(=O)N(Cc2cccc[n+]2CC)C(C)=O)CO1 (stereo not given) |
| 260 nM | CC[n+]1ccccc1CN(C(C)=O)C(=O)OCC1COC(OCCC(c2ccccc2)c2ccccc2)C1 (stereo not given) |
| 51 nM | CC[n+]1ccccc1CN(C(C)=O)C(=O)OCC1COC(OCCCCCCOCCCc2ccccc2)C1 (stereo not given) |
| 15 nM | CC[n+]1ccccc1CN(C(C)=O)C(=O)OCC1COC(OCCCCCCOCCCCCc2ccccc2)C1 (stereo not given) |
| 190 nM | CC[n+]1ccccc1CN(C(C)=O)C(=O)OCC1COC(OCCCc2ccccc2)C1 (stereo not given) |

The next lines start with the compound.

| Structure (SMILES) | IC50 |
| --- | --- |
| CC[n+]1ccccc1CN(C(C)=O)C(=O)OCC1COC(OCCCCCCCCCCCCCCCCOC)C1 (stereo not given) | 2.1 nM |
| CC[n+]1ccccc1CN(C(C)=O)C(=O)OCC1COC(OCCCCCCOCc2ccc(-c3ccccc3)cc2)C1 (stereo not given) | 15 nM |
| C=CCCCCCCOCCCCCCOC1CC(COC(=O)N(Cc2cccc[n+]2CC)C(C)=O)CO1 (stereo not given) | 25 nM |
| CCCCCCCCCCCCCCCCOC1CC(COC(=O)N(Cc2cccc[n+]2CC)C(C)=O)CO1 (stereo not given) | 9.7 nM |
| CCCCCCCCCCCCCCCCCCCCOC1CC(COC(=O)N(Cc2cccc[n+]2CC)C(C)=O)CO1 (stereo not given) | 40 nM |
